# Test results from paper PMC9266822, “Thermal Shift Assay for Small GTPase Stability Screening: Evaluation and Suitability” (International Journal of Molecular Sciences, 2022).
# Entries after “also recorded” stand apart in the source; their conditions may differ.
# Columns and labels:
# KRAS WT = tested on: T1, KRAS WT; assay: Protein-Probe thermal stability assay; type: binding, human; conditions: for Thermal Stability (°C): Table S1
# T1 construct: His6-MBP (N, cleaved yes); made in house; host or cells: E. coli
# Experimental: (§1) All Protein-Probe assays were performed using a sample volume of 8 µL and a two-step assay protocol. Detection was performed at room temperature (RT) by adding 65 µL Protein-Probe solution: 4 µM HIDC (1,1,3,3,3′,3′-hexamethylindodicarbocyanine iodide) and 1–1.5 nM Eu^3+-labeled peptide probe (NH2-[…]). Assays were performed in a sample buffer containing 10 mM HEPES (pH 7.5), 0.001% Triton X-100 and 20 mM NaCl and the buffer was supplemented with 0–10 mM MgCl2, 0–1 mM CaCl2, or 0–1 mM EDTA, depending on the assay. In all thermal stability assays, samples were preincubated at RT for 10 min (nucleotides) or 30 min (inhibitors) prior to thermal measurements. Depending on the studied protein, thermal ramping was performed up to 95 °C, using 5 °C intervals. At each temperature, samples were incubated for 3 min before the Protein-Probe solution was added, and the TRL-signals at 620 nm were monitored at RT.
# (§2) In addition, KRAS WT was monitored in a sample buffer supplemented with 0–10 mM MgCl2 or 0–1 mM CaCl2.
# […] KRAS WT (50 nM) was also monitored with 10 µM GDP in a buffer without MgCl2 or supplemented with 0–1 mM CaCl2 or 1 mM EDTA. HRAS (2 µM), NRAS (2 µM), RhoA (2 µM), and Gαi (50 nM) were monitored with 100 µM GDP, GTP, or ATP in buffers with or without 1 mM MgCl2 and 1 mM EDTA. In addition, melting curves for KRAS WT (50 nM) were measured with GTP analogs GTPγS, GMPPNP, and GMPPCP (0–300 µM), and GMP (0–1000 µM) in the presence of 1 mM MgCl2.
# (§3) All inhibitor assays were performed with a buffer containing 1 mM MgCl2. […]
# KRAS G13D [1] = tested on: T2, KRAS G13D; assay: Protein-Probe thermal stability assay; type: binding, human
# T2 construct: GG-Hs.KRAS4b (2-188) G13D; His6-MBP (N, cleaved yes); made in house; host or cells: E. coli
# Experimental: as §1, §2
# (§4) KRAS G13D (50 nM) was monitored in the presence of 0–900 nM GDP, and KRAS WT, G13D, G12D, and Q61R (50 nM) were monitored with 10 and/or 100 µM GDP, GTP, and ATP in buffer supplemented with 1 mM MgCl2. KRAS WT (50 nM) was also monitored with 10 µM GDP in a buffer without MgCl2 or supplemented with 0–1 mM CaCl2 or 1 mM EDTA. HRAS (2 µM), NRAS (2 µM), RhoA (2 µM), and Gαi (50 nM) were monitored with 100 µM GDP, GTP, or ATP in buffers with or without 1 mM MgCl2 and 1 mM EDTA. In addition, melting curves for KRAS WT (50 nM) were measured with GTP analogs GTPγS, GMPPNP, and GMPPCP (0–300 µM), and GMP (0–1000 µM) in the presence of 1 mM MgCl2.
# (§5) Assays were performed using three DARPins alone or in combination with small molecular inhibitors. […] The thermal curves were monitored after an additional 30 min incubation at RT.
# KRAS Q61R = tested on: T3, KRAS Q61R; assay: Protein-Probe thermal stability assay; type: binding, human
# T3 construct: GG-Hs.KRAS4b (2-188) Q61R; His6-MBP (N, cleaved yes); made in house; host or cells: E. coli
# Experimental: as §1, §2, §4, §5
# KRAS V14I [2] = tested on: T4, KRAS V14I; assay: Protein-Probe thermal stability assay; type: binding; conditions: Table S1; KRAS V14I 1 µM; MgCl2
# T4 construct: KRAS V14I (residues 1-169) lacking the C terminal residues; made in house
# Experimental: as §1
# Gαi = assay: Protein-Probe thermal stability assay; type: binding
# Experimental: as §1, §2, §4
# KRAS Q61L = tested on: T5, KRAS Q61L; assay: Protein-Probe thermal stability assay; type: binding, human; conditions: Table S1; KRAS Q61L 50 nM; MgCl2 1 mM
# T5 construct: GG-Hs.KRAS4b (2-188) Q61L; His6-MBP (N, cleaved yes); made in house; host or cells: E. coli
# Experimental: as §1, §2, §5
# RhoA = tested on: T6, RhoA; assay: Protein-Probe thermal stability assay; type: binding; conditions: Table S1; RhoA 1 µM; additive concentrations not given (100 µM GDP/GTP)
# T6 construct: and RhoA (1-182) were gen-; His6-MBP (N, cleaved yes); made in house; host or cells: E. coli
# Experimental: as §1, §2
# KRAS G13D (50 nM) was monitored in the presence of 0–900 nM GDP, and KRAS WT, G13D, G12D, and Q61R (50 nM) were monitored with 10 and/or 100 µM GDP, GTP, and ATP in buffer supplemented with 1 mM MgCl2. KRAS WT (50 nM) was also monitored with 10 µM GDP in a buffer without MgCl2 or supplemented with 0–1 mM CaCl2 or 1 mM EDTA. […] In addition, melting curves for KRAS WT (50 nM) were measured with GTP analogs GTPγS, GMPPNP, and GMPPCP (0–300 µM), and GMP (0–1000 µM) in the presence of 1 mM MgCl2.
# KRAS G12D = assay: Protein-Probe thermal stability assay; type: binding, human; conditions: Table S1; KRAS G12D 50 nM; MgCl2 1 mM, GDP 10 mM as headed
# Experimental: as §1, §2, §4
# All inhibitor assays were performed with a buffer containing 1 mM MgCl2.
# as §5
# KRAS G12C = tested on: T7, KRAS G12C; assay: Protein-Probe thermal stability assay; type: binding, human; conditions: Table S1; KRAS G12C 50 nM; EDTA 0.5 mM, MgCl2 1 mM
# T7 construct: GG-Hs.KRAS4b (2-188) G12C; His6-MBP (N, cleaved yes); made in house; host or cells: E. coli
# Experimental: All Protein-Probe assays were performed using a sample volume of 8 µL and a two-step assay protocol. […] Assays were performed in a sample buffer containing 10 mM HEPES (pH 7.5), 0.001% Triton X-100 and 20 mM NaCl and the buffer was supplemented with 0–10 mM MgCl2, 0–1 mM CaCl2, or 0–1 mM EDTA, depending on the assay. In all thermal stability assays, samples were preincubated at RT for 10 min (nucleotides) or 30 min (inhibitors) prior to thermal measurements. […] At each temperature, samples were incubated for 3 min before the Protein-Probe solution was added, and the TRL-signals at 620 nm were monitored at RT. […]
# as §3
# Ac-KRAS = tested on: T8, Ac-KRAS; assay: Protein-Probe thermal stability assay; type: binding, human; conditions: Table S1; Ac-KRAS 1 µM; MgCl2
# T8 construct: Truncated (aa 1–169) iMet-
# Experimental: as §1, §2
# iMet-KRAS = tested on: T9, iMet-KRAS; assay: Protein-Probe thermal stability assay; type: binding, human; conditions: Table S1; iMet-KRAS 1 µM; MgCl2
# T9 construct: iMet-KRAS (G-Hs.KRAS4b(1-169)) (Addgene #159539)
# Experimental: as §1, §2
# KRAS V14I [3] = tested on: T4, KRAS V14I; assay: SYPRO Orange / ANS thermal ramping assay; type: binding; conditions: KRAS V14I 10 µM, 1 mM MgCl2; 100 µM ATP
# Experimental: (§6) SYPRO Orange and ANS assays were performed using a one-step protocol, where the samples (8 µL) and SYPRO Orange/ANS solution (12 µL) were combined prior to the first heating step. The samples were incubated for 3 min at each temperature, followed by fluorescence signal measurement. SYPRO Orange was used at 5× (stock 5000×) and ANS at 10 µM final concentration.
# Thermal stability curves for KRAS WT, G12C, G13D, and Q61R (0–30 µM) were monitored both with SYPRO Orange and ANS in an assay buffer with or without 1 mM MgCl2. In addition, HRAS, NRAS, KRAS V14I, RhoA, and Gαi were studied at 10 µM concentration. KRAS G13D (3 µM) was assayed with SYPRO Orange in thermal ramping in combination with 0–1000 µM GDP, 1000 µM GTP, and 1000 µM ATP in a buffer supplemented with 1 mM MgCl2. […]
# NRAS, HRAS, RhoA, Gαi = assay: Protein-Probe thermal stability assay, additional GTPases; type: binding; conditions: any tested condition or protein; data not shown
# Experimental: All Protein-Probe assays were performed using a sample volume of 8 μL and a two-step assay protocol. […] Assays were performed in a sample buffer containing 10 mM HEPES (pH 7.5), 0.001% Triton X-100 and 20 mM NaCl and the buffer was supplemented with 0-10 mM MgCl2, 0-1 mM CaCl2, or 0-1 mM EDTA, depending on the assay. […] Depending on the studied protein, thermal ramping was performed up to 95 °C, using 5 °C intervals. At each temperature, samples were incubated for 3 min before the Protein-Probe solution was added, and the TRL-signals at 620 nm were monitored at RT.
# KRAS G13D [4] = tested on: T2, KRAS G13D; assay: SYPRO Orange thermal ramping assay; type: binding, human; conditions: KRAS G13D 3 µM, 1 mM MgCl2, GDP 1 µM, ATP 1 mM
# Experimental: as §6
# Thermal stability curves for KRAS WT, G12C, G13D, and Q61R (0–30 µM) were monitored both with SYPRO Orange and ANS in an assay buffer with or without 1 mM MgCl2. In addition, HRAS, NRAS, KRAS V14I, RhoA, and Gαi were studied at 10 µM concentration. KRAS G13D (3 µM) was assayed with SYPRO Orange in thermal ramping in combination with 0–1000 µM GDP, 1000 µM GTP, and 1000 µM ATP in a buffer supplemented with 1 mM MgCl2. Additionally, 10 µM HRAS, NRAS, KRAS V14I, Ac-KRAS iMet-KRAS, RhoA, and Gαi were studied without additional nucleotides or with 10 or 100 µM GDP/GTP in an assay buffer supplemented with 1 mM MgCl2 or 1 mM EDTA.
smiles,measurement,setting,value
[Cl-].[Cl-].[Mg+2] [MgCl2],stability increase compared to 1 mM EDTA,"KRAS WT; KRAS WT 50 nM, additive 1 mM",9.1 °C
same,Tm,"KRAS WT; KRAS WT 100 nM, 10 mM MgCl2",64.7 ± 0.5 °C
same,increase of thermal stability over that without MgCl2,"KRAS WT; KRAS WT 100 nM, 1 or 10 mM MgCl2",approximately 10 °C
same,Tm,"KRAS WT; KRAS WT 100 nM, additive 1 mM",60.1 ± 0.3 °C
same,Thermal Stability (°C),"KRAS WT; KRAS WT 50 nM, additive as headed: EDTA 0.5 mM, MgCl2 1 mM, GDP 10 mM, GTP 10 µM, GTPγS 10 µM, GMP-PNP 300 µM, GMP-PCP 300 µM, GMP 1 mM",61.3 ± 0.5 °C
same,Thermal Stability (°C),"KRAS WT; KRAS WT 1 µM, MgCl2",54.4 ± 0.6 °C
same,Tm,"KRAS G13D [1]; KRAS G13D 100 nM, additive 1 mM",47.7 ± 0.4 °C
same,Thermal Stability (°C),"KRAS G13D [1]; Table S1, KRAS G13D 50 nM, EDTA 0.5 mM, MgCl2 1 mM, GDP 10 mM, GTP 10 µM as headed",50.7 ± 0.2 °C
same,Tm,"KRAS Q61R; KRAS Q61R 100 nM, additive 1 mM",66.5 ± 0.5 °C
same,Thermal Stability (°C),"KRAS Q61R; Table S1, KRAS Q61R 50 nM, EDTA 0.5 mM, MgCl2 1 mM, GDP 10 mM, GTP 10 µM as headed",71.9 ± 0.6 °C
same,Thermal Stability (°C),KRAS V14I [2],47.5 ± 0.2 °C
same,effect of Mg2+ on thermal stability,Gαi,~ 4.2 °C
same,Thermal Stability (°C),KRAS Q61L,60.4 ± 0.5 °C
same,Thermal Stability (°C),RhoA,61.3 ± 0.3 °C
same,Thermal Stability (°C),KRAS G12D,60.6 ± 0.5 °C
same,Thermal Stability (°C),KRAS G12C,61.8 ± 0.5 °C
same,Thermal Stability (°C),Ac-KRAS,66.0 ± 1.0 °C
same,Thermal Stability (°C),iMet-KRAS,66.9 ± 0.2 °C
"Nc1ncnc2c1ncn2[C@@H]1O[C@H](COP(=O)(O)OP(=O)(O)OP(=O)(O)O)[C@@H](O)[C@H]1O [ATP, adenosine-5’-triphosphate]",effect on stability,KRAS V14I [3],no effect
same,stabilization,"NRAS, HRAS, RhoA, Gαi",no stabilization
same,stabilization,KRAS G13D [4],no effect; also recorded: no KRAS G13D stabilization
